The record followed here is patent US7576112B2, “Therapeutic N-aryl or N-heteroaryl pyrazolidine and pyrazolidinone derivatives” (Allergan, Inc., priority 2006, dated 2009).

For assay [1], the target named is T1, EP2 (Homo sapiens, UniProt P43116). The experiment in a line: EP2 flipr functional assay. Format: cell-based. An excerpt: (§1) U.S. patent application Ser. No. 11/553,143, filed on Oct. 26, 2006, incorporated by reference herein, describes the methods used to obtain the in vitro data in the table below.
T1 sequence (P43116 whole entry): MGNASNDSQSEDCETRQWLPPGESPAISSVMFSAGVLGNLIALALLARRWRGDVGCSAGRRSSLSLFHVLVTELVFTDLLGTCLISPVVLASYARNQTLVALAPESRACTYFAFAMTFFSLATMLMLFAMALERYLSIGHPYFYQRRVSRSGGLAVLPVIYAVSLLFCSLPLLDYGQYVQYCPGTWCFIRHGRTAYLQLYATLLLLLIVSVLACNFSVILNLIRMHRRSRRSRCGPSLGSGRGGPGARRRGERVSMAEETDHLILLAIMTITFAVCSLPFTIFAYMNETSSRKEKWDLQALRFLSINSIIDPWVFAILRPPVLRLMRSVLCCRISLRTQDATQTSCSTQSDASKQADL
Assay [2] has as its target T1, EP2. The experiment in a line: EP2 cAMP assay. Format: cell-based.
Description: as §1
Background: Changes in cAMP serve as a functional read-out for many G protein-coupled receptors.

For assay [3], the target named is T1, EP2. The assay is described as follows: EP2 binding (Ki).
Description: as §1

A further assay has as its target EP4 (Homo sapiens, UniProt P35408). The experiment in a line: EP4 binding (Ki).
Description: as §1

Another assay concerns the target T2, hEP3A (Homo sapiens, UniProt P43115).
T2 sequence (P43115 1-390): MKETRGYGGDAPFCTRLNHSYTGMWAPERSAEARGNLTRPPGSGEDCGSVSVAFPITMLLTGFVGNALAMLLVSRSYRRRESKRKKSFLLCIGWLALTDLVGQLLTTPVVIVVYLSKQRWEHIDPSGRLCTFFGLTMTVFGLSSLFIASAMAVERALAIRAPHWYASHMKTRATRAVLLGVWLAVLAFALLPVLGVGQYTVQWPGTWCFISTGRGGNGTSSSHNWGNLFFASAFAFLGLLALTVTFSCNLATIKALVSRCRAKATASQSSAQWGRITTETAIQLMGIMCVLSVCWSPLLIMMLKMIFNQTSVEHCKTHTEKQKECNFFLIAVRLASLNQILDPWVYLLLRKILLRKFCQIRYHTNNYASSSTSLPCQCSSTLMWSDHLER
The assay is described as follows: Other receptors functional assay, hEP3A. In kind it is cell-based.
Description: as §1

Where only a bound is given, the exact number is not on record here.

EP4, sequence (P35408 whole entry): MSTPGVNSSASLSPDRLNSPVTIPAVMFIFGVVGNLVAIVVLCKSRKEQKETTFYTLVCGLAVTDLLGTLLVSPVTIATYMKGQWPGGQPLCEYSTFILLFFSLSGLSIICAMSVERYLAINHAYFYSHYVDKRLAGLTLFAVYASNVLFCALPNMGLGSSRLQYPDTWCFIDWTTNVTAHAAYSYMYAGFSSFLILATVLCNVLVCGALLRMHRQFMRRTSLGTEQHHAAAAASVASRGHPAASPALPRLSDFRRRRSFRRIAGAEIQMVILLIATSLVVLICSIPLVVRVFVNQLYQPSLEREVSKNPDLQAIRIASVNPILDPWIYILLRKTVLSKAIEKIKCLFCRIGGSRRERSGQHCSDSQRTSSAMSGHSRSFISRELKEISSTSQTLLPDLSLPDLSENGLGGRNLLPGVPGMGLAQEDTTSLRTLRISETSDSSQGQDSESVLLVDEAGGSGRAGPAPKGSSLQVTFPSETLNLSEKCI

For the compound `CCCCC[C@H](O)c1ccc(N2C(=O)CCN2CCCc2ccc(C(=O)O)s2)cc1` (stereo in doubt) [5-(3-(2-(4-(1-hydroxyhexyl)phenyl)-3-oxopyrazolidin-1-yl)propyl)thiophene-2-carboxylic Acid], the figures for the EC50 on EP2 [1], on EP2 [2] and at hEP3A were 79 nM, 1.8 nM and 5070 nM, respectively. For the same compound, the values for the Ki at EP2 [3] and on EP4 were 251 nM and more than 10000 nM, respectively.
